From patent US20260138961A1, “MODULATORS OF MITOCHONDRIAL DNA REPLICATION” (Pretzel Therapeutics, Inc., priority 2022, published 2026)

Molecular target: T1, wild type human POLγ (POLγA:WT) (Homo sapiens, UniProt P54098)
T1 sequence (P54098 1-1239): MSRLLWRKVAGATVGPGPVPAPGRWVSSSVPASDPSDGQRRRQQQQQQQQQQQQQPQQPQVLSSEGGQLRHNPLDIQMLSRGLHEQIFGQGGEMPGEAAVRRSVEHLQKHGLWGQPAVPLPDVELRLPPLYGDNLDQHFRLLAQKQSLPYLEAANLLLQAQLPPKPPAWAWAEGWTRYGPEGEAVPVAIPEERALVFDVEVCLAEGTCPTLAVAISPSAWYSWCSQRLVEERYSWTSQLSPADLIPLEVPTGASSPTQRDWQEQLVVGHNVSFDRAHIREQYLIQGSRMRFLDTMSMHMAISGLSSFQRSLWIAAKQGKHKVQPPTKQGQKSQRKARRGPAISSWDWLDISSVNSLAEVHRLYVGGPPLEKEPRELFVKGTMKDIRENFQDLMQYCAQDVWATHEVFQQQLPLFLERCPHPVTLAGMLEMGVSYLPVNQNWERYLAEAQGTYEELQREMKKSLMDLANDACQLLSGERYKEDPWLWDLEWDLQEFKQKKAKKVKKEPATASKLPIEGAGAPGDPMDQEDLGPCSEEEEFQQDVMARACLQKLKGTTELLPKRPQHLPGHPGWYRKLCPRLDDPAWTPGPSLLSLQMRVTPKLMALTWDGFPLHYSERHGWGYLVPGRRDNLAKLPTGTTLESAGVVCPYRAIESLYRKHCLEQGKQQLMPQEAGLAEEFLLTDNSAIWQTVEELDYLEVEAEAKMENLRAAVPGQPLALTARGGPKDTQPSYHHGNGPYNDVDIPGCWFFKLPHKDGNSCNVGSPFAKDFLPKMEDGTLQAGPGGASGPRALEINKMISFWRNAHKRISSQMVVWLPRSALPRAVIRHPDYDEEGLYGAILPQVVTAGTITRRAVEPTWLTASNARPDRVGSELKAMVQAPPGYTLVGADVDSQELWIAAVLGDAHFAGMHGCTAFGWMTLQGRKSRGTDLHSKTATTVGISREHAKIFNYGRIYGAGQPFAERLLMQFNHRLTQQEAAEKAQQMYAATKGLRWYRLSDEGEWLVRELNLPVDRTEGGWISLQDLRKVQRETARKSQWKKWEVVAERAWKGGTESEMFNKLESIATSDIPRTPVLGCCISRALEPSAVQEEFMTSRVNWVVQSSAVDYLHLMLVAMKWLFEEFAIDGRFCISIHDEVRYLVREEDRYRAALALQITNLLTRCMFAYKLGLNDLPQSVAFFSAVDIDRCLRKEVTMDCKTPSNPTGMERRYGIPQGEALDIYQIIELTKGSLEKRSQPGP
T1 sequence (Q9UHN1 1-485 partner): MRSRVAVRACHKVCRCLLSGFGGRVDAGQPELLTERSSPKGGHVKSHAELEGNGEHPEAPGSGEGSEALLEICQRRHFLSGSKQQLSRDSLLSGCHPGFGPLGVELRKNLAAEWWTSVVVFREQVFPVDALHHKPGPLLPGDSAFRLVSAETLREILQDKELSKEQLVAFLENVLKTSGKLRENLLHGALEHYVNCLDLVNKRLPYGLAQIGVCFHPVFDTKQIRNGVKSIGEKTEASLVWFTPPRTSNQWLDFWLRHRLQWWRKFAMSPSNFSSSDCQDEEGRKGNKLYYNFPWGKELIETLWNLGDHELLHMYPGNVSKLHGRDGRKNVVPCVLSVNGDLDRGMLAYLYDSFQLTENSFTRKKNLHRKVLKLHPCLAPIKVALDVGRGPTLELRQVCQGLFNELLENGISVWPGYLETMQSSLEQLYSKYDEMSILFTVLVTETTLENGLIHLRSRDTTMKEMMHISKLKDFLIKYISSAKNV
Test: DNA polymerization assay, wild type POLγ
Type: biochemical
Settings: 0.1 μM dNTP, read-out: WT AC50 (μM) at 0.1 μM
Protocol: DNA Polymerization Assay to Monitor Effects on Human Wildtype POLγ and Four Disease-Causing Mutant Variants of Human POLγ.
The ability of small molecules to stimulate the polymerase activity of POLγ was analyzed in a quantitative fluorescence SYBR Green I assay with fluorescence intensity (FI) readout.
In the presence of dNTPs, wild type human POLγ and mutant derivatives thereof were incubated with single-stranded, circular M13mp18 ssDNA hybridized to a short DNA oligonucleotide that functions as a primer for initiation of DNA synthesis. POLγ and mutant derivatives thereof will extend the primer and use the M13mp18 molecule as a template to synthesize long stretches of double-stranded DNA. SYBR Green I, which is a double-stranded DNA-binding dye, was used to quantify formation of double-stranded DNA in the reaction. When bound to double-stranded DNA, SYBR Green I fluorescence increases by up to 100-fold.
The assay was performed in the 384-well plate format. Upon addition of compounds, changes in double-stranded DNA synthesis activity can be monitored by following effects on fluorescent intensity.
The reactions also contained the accessory POLγB subunit, and the human mitochondrial single-stranded DNA binding protein (mtSSB).
The DNA template mixture used in the assay contained 0.5 nM primed M13 mp18 ssDNA, 400 nM mtSSB, 0.1 mM Tris-HCl (pH 8.0), 0.1 mM dNTP, 10 mM MgCl2, 0.1 mg/mL BSA, 1 mM TCEP solution, and 0.02% Triton X-100. The DNA template mixture for the wild type protein contained either 100 μM dNTP, 1 μM dNTP, or 0.1 μM dNTP, designated in Table 2 as 100 μM, 1 μM, and 0.1 μM, respectfully.
Microplates with compounds (0.1 μL in each well) to be tested in the assay were prepared from 10 mM compound stocks in 100% DMSO, and equal amounts of DMSO without any compound were added to positive and negative control wells.
The protein mixture was dispensed (5 μL into each well) into compound plates and incubated at 37° C. for 15 minutes. After incubation, 5 μL of the DNA template mixture was dispensed into each well. The plates were then incubated at 37° C. for 2 hours.
During incubation, a combined stop buffer and detection reagent solution was prepared. The buffer contained 25 mM EDTA (pH 8.0), 0.02% Triton X-100, and SYBR Green I [Invitrogen] diluted 10,000× (for fluorescent readout). EDTA will stop the enzymatic reaction by chelating magnesium ions.

AC50	Molecule
17 µM	Cc1cnc(-c2cc(NS(=O)(=O)c3cc(C)c(Cl)cc3C)ccc2C)s1 [Example 103, 4-chloro-2,5-dimethyl-N-(4-methyl-3-(5-methylthiazol-2-yl)phenyl)benzenesulfonamide]

Same assay, conditions: 100 μM dNTP, read-out: WT AC50 (μM) at 100 μM

Molecule	AC50
Cc1cc(S(=O)(=O)N[C@@H]2CCCN(C(=O)[C@@H]3CCCN3C)C2)c(C)cc1Cl [Example 104, 4-chloro-2,5-dimethyl-N-((R)-1-(methyl-L-prolyl)piperidin-3-yl)benzenesulfonamide]	> 10 µM
Cc1cc(S(=O)(=O)Nc2cc(F)cc(C(=O)N3CCC[C@H]3C)c2)c(C)cc1Cl [Example 13, (R)-4-chloro-N-(3-fluoro-5-(2-methylpyrrolidine-1-carbonyl)phenyl)-2,5-dimethylbenzenesulfonamide]	1 µM
(R)-2,5-dimethyl-N-(3-(3-methylmorpholine-4-carbonyl)phenyl)benzenesulfonamide [Example 1]	2 µM
Cc1ccc(C)c(S(=O)(=O)Nc2cccc(C(=O)N3CCOCC3C#N)c2)c1 (stereo not shown) [Example 7, N-(3-(3-cyanomorpholine-4-carbonyl)phenyl)-2,5-dimethylbenzenesulfonamide]	1 µM
Cc1ccc(C)c(S(=O)(=O)Nc2cccc(C(=O)N3CCCC[C@@H]3C)c2)c1 [Example 6, (S)-2,5-dimethyl-N-(3-(2-methylpiperidine-1-carbonyl)phenyl)benzenesulfonamide]	4 µM
Cc1ccc(C)c(S(=O)(=O)Nc2cccc(C(=O)N3CCCCC3C#N)c2)c1 (stereo not shown) [Example 2, N-(3-(2-cyanopiperidine-1-carbonyl)phenyl)-2,5-dimethylbenzenesulfonamide]	1 µM
Cc1cc(S(=O)(=O)Nc2cccc(C(=O)N(C(C)C)C3COC3)c2)c(C)cc1Cl [Example 112, 3-((4-chloro-2,5-dimethylphenyl)sulfonamido)-N-isopropyl-N-(oxetan-3-yl)benzamide]	20 µM
O=S(=O)(Nc1csc(-c2ccccc2)n1)c1ccc2c(c1)CCO2 [Example 152, N-(2-phenylthiazol-4-yl)-2,3-dihydrobenzofuran-5-sulfonamide]	> 10 µM
Cc1cc(F)ccc1S(=O)(=O)Nc1csc(-c2ccccc2)n1 [Example 124, 4-fluoro-2-methyl-N-(2-phenylthiazol-4-yl)benzenesulfonamide]	1 µM
Cc1cc(S(=O)(=O)Nc2cccc(C(=O)N3CCCC4(CC4)C3)c2)c(C)cc1Cl [Example 105, N-(3-(5-azaspiro[2.5]octane-5-carbonyl)phenyl)-4-chloro-2,5-dimethylbenzenesulfonamide]	> 10 µM
Cc1cc(Cl)ccc1S(=O)(=O)Nc1csc(-c2ccccc2)n1 [Example 135, 4-chloro-2-methyl-N-(2-phenylthiazol-4-yl)benzenesulfonamide]	0.6 µM
Cc1cc(S(=O)(=O)Nc2cccc(C(=O)N3C[C@H](C)[C@@H](N)C3)c2)c(C)cc1Cl [Example 108, N-(3-((3R,4S)-3-amino-4-methylpyrrolidine-1-carbonyl)phenyl)-4-chloro-2,5-dimethylbenzenesulfonamide]	24 µM
Cc1ccc(C)c(S(=O)(=O)Nc2csc(-c3ccccc3)n2)c1 [Example 134, 2,5-dimethyl-N-(2-phenylthiazol-4-yl)benzenesulfonamide]	0.3 µM
Cc1ccc(S(=O)(=O)Nc2csc(-c3ccccc3)n2)c(C)c1 [Example 123, 2,4-dimethyl-N-(2-phenylthiazol-4-yl)benzenesulfonamide]	3 µM

Continued, values first:

AC50	Molecule
1 µM	Cc1cc(S(=O)(=O)Nc2cccc(C(=O)N3CCc4cn[nH]c4C3)c2)c(C)cc1Cl [Example 107, 4-chloro-2,5-dimethyl-N-(3-(4,5,6,7-tetrahydro-1H-pyrazolo[3,4-c]pyridine-6-carbonyl)phenyl)benzenesulfonamide]
1 µM	Cc1cnc(-c2cc(NS(=O)(=O)c3cc(C)c(Cl)cc3C)ccc2C)s1 [Example 103, 4-chloro-2,5-dimethyl-N-(4-methyl-3-(5-methylthiazol-2-yl)phenyl)benzenesulfonamide]
1 µM	Cc1cc(S(=O)(=O)Nc2nsc(-c3ccccc3)n2)c(C)cc1Cl [Example 131, 4-chloro-2,5-dimethyl-N-(5-phenyl-1,2,4-thiadiazol-3-yl)benzenesulfonamide]
0.8 µM	Cc1cc(S(=O)(=O)Nc2cccc(-c3nccn3C)c2)c(C)cc1Cl [Example 19, 4-chloro-2,5-dimethyl-N-(3-(1-methyl-1H-imidazol-2-yl)phenyl)benzenesulfonamide]
> 10 µM	Cc1cc(S(=O)(=O)Nc2cccc(-c3ncc(C(N)=O)s3)c2)c(C)cc1Cl [Example 92, 2-(3-((4-chloro-2,5-dimethylphenyl)sulfonamido)phenyl) thiazole-5-carboxamide]
> 100 µM	Cc1cc(S(=O)(=O)Nc2cccc(C(=O)N(C)C(C)CO)c2)c(C)cc1Cl (single isomer, unassigned) [Example 14, 3-((4-chloro-2,5-dimethylphenyl)sulfonamido)-N-(1-hydroxypropan-2-yl)-N-methylbenzamide]
> 10 µM	Cc1cc(S(=O)(=O)Nc2cccc(C(=O)N3CCCC3)c2)c(C)cc1Cl [Example 119, 4-chloro-2,5-dimethyl-N-(3-(pyrrolidine-1-carbonyl)phenyl) benzenesulfonamide]
